Assay: Solubility of paclitaxel in the hydrophilic liquid core solvents
Conditions: solvents such as DMSO and DENA

## CC(=O)O[C@H]1C(=O)[C@@]2(C)[C@H]([C@H](OC(=O)c3ccccc3)[C@]3(O)C[C@H](OC(=O)[C@H](O)[C@@H](NC(=O)c4ccccc4)c4ccccc4)C(C)=C1C3(C)C)[C@]1(OC(C)=O)CO[C@@H]1C[C@@H]2O [paclitaxel]
  concentration at which the drug may be dissolved in liquid core: 10-60 weight percent

Reference: patent US20070031504A1, “Microdevices comprising nanocapsules for controlled delivery of drugs and method of manufacturing same” (MIV Therapeutics Inc., priority 2005, published 2007)
